# Source: BigSolDB 2.1
compound,measurement,setting,value
Cc1nc(N)nc(N)n1,solubility (mole fraction),"in 1,4-dioxane, 283.15 K",0.000584
same,solubility (mole fraction),"in 1,4-dioxane, 288.15 K",0.000676
same,solubility (mole fraction),"in 1,4-dioxane, 293.15 K",0.000782
same,solubility (mole fraction),"in 1,4-dioxane, 298.15 K",0.000899
same,solubility (mole fraction),"in 1,4-dioxane, 303.15 K",0.00107
same,solubility (mole fraction),"in 1,4-dioxane, 308.15 K",0.00126
same,solubility (mole fraction),"in 1,4-dioxane, 313.15 K",0.00152
same,solubility (mole fraction),"in 1,4-dioxane, 318.15 K",0.00177
same,solubility (mole fraction),"in 1,4-dioxane, 323.15 K",0.00205
same,solubility (mole fraction),"in DMF, 283.15 K",0.00103
same,solubility (mole fraction),"in DMF, 288.15 K",0.0012
same,solubility (mole fraction),"in DMF, 293.15 K",0.00133
same,solubility (mole fraction),"in DMF, 298.15 K",0.00151
same,solubility (mole fraction),"in DMF, 303.15 K",0.0018
same,solubility (mole fraction),"in DMF, 308.15 K",0.00209
same,solubility (mole fraction),"in DMF, 313.15 K",0.00247
same,solubility (mole fraction),"in DMF, 318.15 K",0.00283
same,solubility (mole fraction),"in DMF, 323.15 K",0.00325
same,solubility (mole fraction),"in acetonitrile, 283.15 K",9.52e-05
same,solubility (mole fraction),"in acetonitrile, 288.15 K",0.000117
same,solubility (mole fraction),"in acetonitrile, 293.15 K",0.000141
same,solubility (mole fraction),"in acetonitrile, 298.15 K",0.00018
same,solubility (mole fraction),"in acetonitrile, 303.15 K",0.000228
same,solubility (mole fraction),"in acetonitrile, 308.15 K",0.000287
same,solubility (mole fraction),"in acetonitrile, 313.15 K",0.000345
same,solubility (mole fraction),"in acetonitrile, 318.15 K",0.000426
same,solubility (mole fraction),"in acetonitrile, 323.15 K",0.000523
same,solubility (mole fraction),"in ethanol, 283.15 K",0.000226
same,solubility (mole fraction),"in ethanol, 288.15 K",0.000258
same,solubility (mole fraction),"in ethanol, 293.15 K",0.000315
same,solubility (mole fraction),"in ethanol, 298.15 K",0.000386
same,solubility (mole fraction),"in ethanol, 303.15 K",0.000485
same,solubility (mole fraction),"in ethanol, 308.15 K",0.000592
same,solubility (mole fraction),"in ethanol, 313.15 K",0.000688
same,solubility (mole fraction),"in ethanol, 318.15 K",0.000845
same,solubility (mole fraction),"in ethanol, 323.15 K",0.000999
same,solubility (mole fraction),"in ethyl acetate, 283.15 K",0.000671
same,solubility (mole fraction),"in ethyl acetate, 288.15 K",0.00078
same,solubility (mole fraction),"in ethyl acetate, 293.15 K",0.000928
same,solubility (mole fraction),"in ethyl acetate, 298.15 K",0.00104
same,solubility (mole fraction),"in ethyl acetate, 303.15 K",0.00125
same,solubility (mole fraction),"in ethyl acetate, 308.15 K",0.00142
same,solubility (mole fraction),"in ethyl acetate, 313.15 K",0.00171
same,solubility (mole fraction),"in ethyl acetate, 318.15 K",0.00198
same,solubility (mole fraction),"in ethyl acetate, 323.15 K",0.00229
same,solubility (mole fraction),"in ethylene glycol, 283.15 K",0.000797
same,solubility (mole fraction),"in ethylene glycol, 288.15 K",0.000935
same,solubility (mole fraction),"in ethylene glycol, 293.15 K",0.00109
same,solubility (mole fraction),"in ethylene glycol, 298.15 K",0.00121
same,solubility (mole fraction),"in ethylene glycol, 303.15 K",0.00145
same,solubility (mole fraction),"in ethylene glycol, 308.15 K",0.00164
same,solubility (mole fraction),"in ethylene glycol, 313.15 K",0.00193
same,solubility (mole fraction),"in ethylene glycol, 318.15 K",0.00225
same,solubility (mole fraction),"in ethylene glycol, 323.15 K",0.00259
same,solubility (mole fraction),"in isobutanol, 283.15 K",0.000392
same,solubility (mole fraction),"in isobutanol, 288.15 K",0.000454
same,solubility (mole fraction),"in isobutanol, 293.15 K",0.000551
same,solubility (mole fraction),"in isobutanol, 298.15 K",0.000663
same,solubility (mole fraction),"in isobutanol, 303.15 K",0.000792
same,solubility (mole fraction),"in isobutanol, 308.15 K",0.000931
same,solubility (mole fraction),"in isobutanol, 313.15 K",0.0011
same,solubility (mole fraction),"in isobutanol, 318.15 K",0.00127
same,solubility (mole fraction),"in isobutanol, 323.15 K",0.00153
same,solubility (mole fraction),"in isopropanol, 283.15 K",0.00027
same,solubility (mole fraction),"in isopropanol, 288.15 K",0.000325
same,solubility (mole fraction),"in isopropanol, 293.15 K",0.000393
same,solubility (mole fraction),"in isopropanol, 298.15 K",0.00047
same,solubility (mole fraction),"in isopropanol, 303.15 K",0.000587
same,solubility (mole fraction),"in isopropanol, 308.15 K",0.000698
same,solubility (mole fraction),"in isopropanol, 313.15 K",0.000808
same,solubility (mole fraction),"in isopropanol, 318.15 K",0.000973
same,solubility (mole fraction),"in isopropanol, 323.15 K",0.00115
same,solubility (mole fraction),"in methanol, 283.15 K",0.000159
same,solubility (mole fraction),"in methanol, 288.15 K",0.000192
same,solubility (mole fraction),"in methanol, 293.15 K",0.000235
same,solubility (mole fraction),"in methanol, 298.15 K",0.000289
same,solubility (mole fraction),"in methanol, 303.15 K",0.000365
same,solubility (mole fraction),"in methanol, 308.15 K",0.000434
same,solubility (mole fraction),"in methanol, 313.15 K",0.000553
same,solubility (mole fraction),"in methanol, 318.15 K",0.000636
same,solubility (mole fraction),"in methanol, 323.15 K",0.000782
same,solubility (mole fraction),"in n-butanol, 283.15 K",0.000477
same,solubility (mole fraction),"in n-butanol, 288.15 K",0.000536
same,solubility (mole fraction),"in n-butanol, 293.15 K",0.00064
same,solubility (mole fraction),"in n-butanol, 298.15 K",0.000764
same,solubility (mole fraction),"in n-butanol, 303.15 K",0.000919
same,solubility (mole fraction),"in n-butanol, 308.15 K",0.00111
same,solubility (mole fraction),"in n-butanol, 313.15 K",0.00131
same,solubility (mole fraction),"in n-butanol, 318.15 K",0.0015
same,solubility (mole fraction),"in n-butanol, 323.15 K",0.00177
same,solubility (mole fraction),"in n-propanol, 283.15 K",0.000321
same,solubility (mole fraction),"in n-propanol, 288.15 K",0.000385
same,solubility (mole fraction),"in n-propanol, 293.15 K",0.000452
same,solubility (mole fraction),"in n-propanol, 298.15 K",0.00054
same,solubility (mole fraction),"in n-propanol, 303.15 K",0.000689
same,solubility (mole fraction),"in n-propanol, 308.15 K",0.000836
same,solubility (mole fraction),"in n-propanol, 313.15 K",0.000985
same,solubility (mole fraction),"in n-propanol, 318.15 K",0.00115
same,solubility (mole fraction),"in n-propanol, 323.15 K",0.00132
same,solubility (mole fraction),"in water, 283.15 K",0.000122
same,solubility (mole fraction),"in water, 288.15 K",0.000146
same,solubility (mole fraction),"in water, 293.15 K",0.000182
same,solubility (mole fraction),"in water, 298.15 K",0.000228
same,solubility (mole fraction),"in water, 303.15 K",0.000285
same,solubility (mole fraction),"in water, 308.15 K",0.000362
same,solubility (mole fraction),"in water, 313.15 K",0.000426
same,solubility (mole fraction),"in water, 318.15 K",0.000521
same,solubility (mole fraction),"in water, 323.15 K",0.000633
